Measured values reported in patent US9534221B2, “Targeting the steroidogenic pathway for treating and/or preventing allergic diseases” (National Jewish Health, priority 2013, dated 2017).

Columns and labels:
[1] = system: OVA-sensitized CD8-deficient mice; experiment: Secondary allergen challenge model with adoptive transfer of CD8+ T cells; type: in vivo, mouse
Procedure: The experimental protocol for sensitization and challenge to OVA was as described previously (Oka, H. et al. Cell. Immunol. 206, 7-15 (2000); Sundrud, M. S, and Nolan, M. A. Curr. Opin. Immunol. 22, 286-292 (2010)), with some modification. CD8-deficient mice were sensitized with 20 μg of OVA (Calbiochem, La Jolla, Calif.) emulsified in 2.25 mg of alum (AlumImuject; Pierce, Rockford, Ill.) on days 0 and 14 by intraperitoneal injection. Mice were challenged with 0.2% OVA for 20 minutes on days 21, 22, and 23 using an ultrasonic nebulizer (model NE-U07; Omron Healthcare, Kyoto, J P). […] Two hours after transfer, mice were challenged (secondary) with 1% OVA for 20 minutes. Airway function was measured and samples were collected on day 38. Airway function was assessed as described previously (Oka, H. et al. Cell. Immunol. 206, 7-15 (2000); Sundrud, M. S, and Nolan, M. A. Curr. Opin. Immunol. 22, 286-292 (2010)) by measuring changes in airway resistance (RL) in response to increasing doses of inhaled methacholine (Sigma, St. Louis, Mo.). Data were presented as percentage change from the baseline RL values after saline inhalation. […] After measurement of AHR, lungs were lavaged via the tracheal tube with 1 ml of HBSS. The supernatants were collected and IL-4, IL-5, and IL-13 (eBioscience, San Diego, Calif.) levels were measured by ELISA as described previously. Total leukocyte numbers were counted and differentiated as described previously (Oka, H. et al. Cell. Immunol. 206, 7-15 (2000); Sundrud, M. S, and Nolan, M. A. Curr. Opin. Immunol. 22, 286-292 (2010)). Mouse lungs were isolated and fixed in 10% formalin, then embedded in paraffin and cut into 5-μm thick tissue sections. Sections were stained with periodic acid-Schiff (PAS) and mucus-containing cells were quantitated as previously described (Oka, H. et al. Cell. Immunol. 206, 7-15 (2000); Sundrud, M. S, and Nolan, M. A. Curr. Opin. Immunol. 22, 286-292 (2010)). For some experiments, lung tissue expression of Cyp11a1 was identified by immunohistochemistry staining using anti-human Cyp11a1 antibody.

[2] = system: T-bet and GATA3 expression; experiment: Quantitative RT-PCR of T-bet and GATA3 in CD8+ T cells; type: cell-based, mouse; details: CD8+ T cells in IL-2 or IL-2+IL-4, untreated vs 500 μM AMG
Procedure: CD8^+ effector memory T cells were generated in vitro as previously described (Miyahara, N. et al. J. Immunol. 172, 2549-2558 (2004); Miyahara, N. et al. J. Immunol. 174, 4979-4984 (2005)). In brief, mononuclear cells (MNCs) were processed from the spleens of OT-1 mice followed by stimulation of 1 μg/ml SIINFEKL peptide (SEQ ID NO:1) was used to stimulate cells for 1.5 hours. Two days after culture, living cells were re-isolated using histopaque and cultured in complete RPMI 1640 medium that contained recombinant mouse IL-2 (20 ng/ml) (R&D, Minneapolis, Minn.) or IL-2+IL-4 (20 ng/ml) (Peprotech, Rocky Hill, N.J.). For some experiments, AMG was added into the medium together with IL-2 or IL-2+IL-4. Medium with cytokines was changed every day for a further 4 days. The cells were then re-stimulated with 1 μg/ml SIINFEKL (SEQ ID NO:1) in medium containing 2 μM monensin (Calbiochem, La Jolla, Calif.) for 4 hours. Total RNA was extracted from 5×10^6 differentiated CD8^+ T cells using the RNeasy Mini kit (Qiagen, Valencia, Calif.). 1 μg of total RNA was converted into cDNA using iScript cDNA Synthesis kit (Bio-Rad, Hercules, Calif.). […] Fold-changes were determined using the 2^−ΔΔCt method, with normalization to expression of mouse GAPDH.

[3] = recipients of AMG-treated vs untreated CD8+ T cells
[4] = recipients of CD8+ T cells pretreated with AMG vs untreated cells

CCC1(c2ccc(N)cc2)CCC(=O)NC1=O (stereo not shown) [AMG, aminoglutethimide]
Cyp11a1-positive cells in the lung ([1]; recipients of AMG-treated cells): few Cyp11a1-positive cells
IL-4 level in BAL fluid [1, 3]: significantly lower
IL-5 level in BAL fluid [1, 3]: significantly lower
IL-13 level in BAL fluid [1, 3]: significantly lower
Lung inflammation (histology) [1, 4]: less inflammation
Numbers of PAS+ mucus-containing goblet cells in lung [1, 4]: significantly decreased
AHR (changes in airway resistance RL) ([1]; transfer of 5×10^6 CD8+ T cells differentiated in IL-2 with AMG (500 μM)): failed to restore AHR or airway inflammation
Airway inflammation (cell composition in BAL fluid) ([1]; transfer of CD8+ T cells differentiated in IL-2 with AMG (500 μM)): failed to restore AHR or airway inflammation
GATA3 expression [2]: no significant differences
T-bet expression [2]: no significant differences
